Patent US6706702B2, “Aryl fused azapolycyclic compounds” (Pfizer Inc., priority 1998, dated 2004)

Structure (SMILES) | melting point [°C]
Cl.FC(F)Oc1ccc2c(c1)CC1CNCC2C1 (stereo not shown) | 230 to 234
Cl.O=[N+]([O-])c1ccc2c(c1)C1CNCC(C2)C1 (stereo not shown) | 215 to 220
Cl.Fc1ccc2c(c1)CC1CC2CN(Cc2ccccc2)C1 (stereo not shown) | 202 to 203
Cl.c1c2c(cc3c1OCO3)C1CNCC(C2)C1 (stereo not shown) | 241 to 243
COc1cccc2c1CC1CNCC2C1.Cl (stereo not shown) | 272 to 274
Cl.c1cncc(-c2ccc3c(c2)CC2CNCC3C2)c1 (stereo not shown) | 240 to 242
COc1ccc2c(c1)CC1CNCC2C1.Cl (stereo not shown) | 253.5 to 258
